From PMC6547681 (Nature Communications, 2019)
“And” between values parts separate entries of the source, which are not always exact repeats. Equal values may be shown once. Read-outs that look alike come from different tables or passages of the source.

Key:
[1] = test system: BCL-2 WT; assay: Steady-state competition SPR against immobilised BIMBH3 peptide, BCL-2 WT; assay type: binding, human; details: for Ki: BCL-2 WT
Procedure: SPR experiments were performed as previously described. […] The lowest concentrations used in direct binding experiments were 1 nM for BIAcore 4000 and 0.1 nM for BIAcore S200 instruments, concentrations below these were below the sensitivity thresholds for the instruments. […] Direct binding experiments were fitted to a 1:1 binding site kinetic model, fitting on and off rates, in BIAevaluation software. For competition experiments steady-state responses were determined in BIAevaluation software according to the software defaults in affinity evaluation mode averaging responses for 5 sec. […] All affinity measurements were performed in at least two independent experiments using independent protein preparations.

[2] = test system: KMS-12-PE cells expressing BCL-2 WT; assay: CellTiter-Glo cell viability, KMS-12-PE cells overexpressing BCL-2 WT; details: read-out: S55746 LC50, KMS-12-PE overexpressing BCL-2 WT, 24 h, mean ± SD, n = 3

In the case of O=C(c1cc(-c2cc3c(cc2C(=O)N2Cc4ccccc4C[C@H]2CN2CCOCC2)OCO3)n2c1CCCC2)N(c1ccccc1)c1ccc(O)cc1 [S55746], the “Raw data values in Figure 3f (SPR response)” value (“Raw data values in Figure 3f” below) ([1]; S55746 concentration 40, BCL-2 concentration 40 nM, independent experiment 2) is reported as 135.922, the “Raw data values in Figure 3f” value ([1]; S55746 concentration 40, BCL-2 concentration 40 nM, independent experiment 3) is reported as 43.3243 and the “Raw data values in Figure 3f” value ([1]; S55746 concentration 40, BCL-2 concentration 50 nM, independent experiment 1) is reported as 78.7968. For the same molecule, the “Raw data values in Figure 3f” value ([1]; S55746 concentration 40, BCL-2 concentration 50 nM, independent experiment 3) was 49.1674, the “Raw data values in Figure 3f” value ([1]; S55746 concentration 40, BCL-2 concentration 60 nM, independent experiment 1) was 84.5822 and the “Raw data values in Figure 3f” value ([1]; S55746 concentration 40, BCL-2 concentration 60 nM, independent experiment 3) was 58.6901. The “Raw data values in Figure 3f” value ([1]; S55746 concentration 40, BCL-2 concentration 70 nM, independent experiment 1) was 88.5391, the “Raw data values in Figure 3f” value ([1]; S55746 concentration 40, BCL-2 concentration 70 nM, independent experiment 3) was 64.9952 and the “Raw data values in Figure 3f” value ([1]; S55746 concentration 40, BCL-2 concentration 80 nM, independent experiment 1) was 89.9035. For the same molecule, the “Raw data values in Figure 3f” value ([1]; S55746 concentration 40, BCL-2 concentration 80 nM, independent experiment 3) was 69.0967, the “Raw data values in Figure 3f” value ([1]; S55746 concentration 40, BCL-2 concentration 100 nM, independent experiment 1) was 92.2307 and the “Raw data values in Figure 3f” value ([1]; S55746 concentration 40, BCL-2 concentration 100 nM, independent experiment 3) was 75.0006. For the same molecule, the “Raw data values in Figure 3f” value ([1]; S55746 concentration 40, BCL-2 concentration 150 nM, independent experiment 1) was 94.9838, the “Raw data values in Figure 3f” value ([1]; S55746 concentration 40, BCL-2 concentration 150 nM, independent experiment 3) was 84.1638 and the “Raw data values in Figure 3f” value ([1]; S55746 concentration 40, BCL-2 concentration 200 nM, independent experiment 1) was 96.8989. The “Raw data values in Figure 3f” value ([1]; S55746 concentration 40, BCL-2 concentration 200 nM, independent experiment 3) was 89.8321, the “Raw data values in Figure 3f” value ([1]; S55746 concentration 60, BCL-2 concentration 10 nM, independent experiment 1) was 3.3753 and the “Raw data values in Figure 3f” value ([1]; S55746 concentration 60, BCL-2 concentration 10 nM, independent experiment 3) was 1.1233. For the same molecule, the “Raw data values in Figure 3f” value ([1]; S55746 concentration 60, BCL-2 concentration 20 nM, independent experiment 1) was 7.929, the “Raw data values in Figure 3f” value ([1]; S55746 concentration 60, BCL-2 concentration 20 nM, independent experiment 3) was 2.648 and the “Raw data values in Figure 3f” value ([1]; S55746 concentration 60, BCL-2 concentration 30 nM, independent experiment 1) was 13.853. For the same molecule, the “Raw data values in Figure 3f” value ([1]; S55746 concentration 60, BCL-2 concentration 30 nM, independent experiment 3) was 4.966, the “Raw data values in Figure 3f” value ([1]; S55746 concentration 60, BCL-2 concentration 40 nM, independent experiment 1) was 26.5524 and the “Raw data values in Figure 3f” value ([1]; S55746 concentration 60, BCL-2 concentration 40 nM, independent experiment 3) was 9.938. For the same molecule, the “Raw data values in Figure 3f” value ([1]; S55746 concentration 60, BCL-2 concentration 50 nM, independent experiment 1) was 51.4643, the “Raw data values in Figure 3f” value ([1]; S55746 concentration 60, BCL-2 concentration 50 nM, independent experiment 3) was 23.6574 and the “Raw data values in Figure 3f” value ([1]; S55746 concentration 60, BCL-2 concentration 60 nM, independent experiment 1) was 75.6075. For the same molecule, the “Raw data values in Figure 3f” value ([1]; S55746 concentration 60, BCL-2 concentration 60 nM, independent experiment 3) was 44.7291, the “Raw data values in Figure 3f” value ([1]; S55746 concentration 60, BCL-2 concentration 70 nM, independent experiment 1) was 83.0032 and the “Raw data values in Figure 3f” value ([1]; S55746 concentration 60, BCL-2 concentration 70 nM, independent experiment 3) was 55.5781. The “Raw data values in Figure 3f” value ([1]; S55746 concentration 60, BCL-2 concentration 80 nM, independent experiment 1) was 87.1926, the “Raw data values in Figure 3f” value ([1]; S55746 concentration 60, BCL-2 concentration 80 nM, independent experiment 3) was 62.5167 and the “Raw data values in Figure 3f” value ([1]; S55746 concentration 60, BCL-2 concentration 100 nM, independent experiment 1) was 90.81. The “Raw data values in Figure 3f” value ([1]; S55746 concentration 60, BCL-2 concentration 100 nM, independent experiment 3) was 70.2062, the “Raw data values in Figure 3f” value ([1]; S55746 concentration 60, BCL-2 concentration 150 nM, independent experiment 1) was 94.4799 and the “Raw data values in Figure 3f” value ([1]; S55746 concentration 60, BCL-2 concentration 150 nM, independent experiment 3) was 81.267. For the same molecule, the “Raw data values in Figure 3f” value ([1]; S55746 concentration 60, BCL-2 concentration 200 nM, independent experiment 1) was 96.2757, the “Raw data values in Figure 3f” value ([1]; S55746 concentration 60, BCL-2 concentration 200 nM, independent experiment 3) was 87.9958 and the “Raw data values in Figure 3f” value ([1]; S55746 concentration 80, BCL-2 concentration 1 nM, independent experiment 2) was 1.2215. For the same molecule, the “Raw data values in Figure 3f” value ([1]; S55746 concentration 80, BCL-2 concentration 3 nM, independent experiment 2) was 2.493, the “Raw data values in Figure 3f” value ([1]; S55746 concentration 80, BCL-2 concentration 4 nM, independent experiment 2) was 3.639 and the “Raw data values in Figure 3f” value ([1]; S55746 concentration 80, BCL-2 concentration 6 nM, independent experiment 2) was 4.673. The “Raw data values in Figure 3f” value ([1]; S55746 concentration 80, BCL-2 concentration 8 nM, independent experiment 2) was 5.6951, the “Raw data values in Figure 3f” value ([1]; S55746 concentration 80, BCL-2 concentration 9 nM, independent experiment 2) was 6.782 and the “Raw data values in Figure 3f” value ([1]; S55746 concentration 80, BCL-2 concentration 11 nM, independent experiment 2) was 7.791. For the same molecule, the “Raw data values in Figure 3f” value ([1]; S55746 concentration 80, BCL-2 concentration 12 nM, independent experiment 2) was 8.945, the “Raw data values in Figure 3f” value ([1]; S55746 concentration 80, BCL-2 concentration 16 nM, independent experiment 2) was 11.2715 and the “Raw data values in Figure 3f” value ([1]; S55746 concentration 80, BCL-2 concentration 24 nM, independent experiment 2) was 17.5573. For the same molecule, the “Raw data values in Figure 3f” value ([1]; S55746 concentration 80, BCL-2 concentration 40 nM, independent experiment 2) was 30.3087, the Ki ([1]; read-out: S55746 KI (mean), competition vs BIMBH3 SPR surface, mean ± SD, n ≥ 2) was 0.36 nM and 0.356 nM and the Ki ([1]; read-out: S55746 KI, single independent experiments, independent experiments 1-3) was 0.358 nM and 0.372 nM and 0.338 nM. For the same molecule, the CC50 [2] was 320 ± 150 nM.
